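Where inhibition never reached the appropriate level, the endpoint shown equals the highest concentration tested. Otherwise, values were interpolated linearly from a five-concentration, 48-hour dose response in 96-well plates. GI50: concentration for 50% inhibition of growth.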 Activity calls are given as the source filed them. Cut-off read from the data, not from the text of the source: active = GI50 up to about 1.1 µM and inactive = higher.
Columns and labels:
Experiment in all cases: DTP human tumour cell line panel, 48 h
[1] = system: RXF 631
[2] = system: SW-620
[3] = system: A498
[4] = system: U-251
[5] = system: K562
[6] = system: SK-MEL-28
[7] = system: KM12
[8] = system: SF-268
[9] = system: SNB-19
[10] = system: OVCAR-5
[11] = system: M14
[12] = system: EKVX
[13] = system: DMS-114
[14] = system: HL-60
[15] = system: CAKI-1
[16] = system: ACHN
[17] = system: LOX IMVI
[18] = system: LXFL 529
[19] = system: SNB-78
[20] = system: Malme-3M
[21] = system: 786-0
[22] = system: UACC-62
[23] = system: HCT-15
[24] = system: NCI-H23
[25] = system: SK-OV-3
[26] = system: M19-MEL
[27] = system: SN12C
[28] = system: HCT-116
[29] = system: HCC 2998
[30] = system: TK-10
[31] = system: UO-31
[32] = system: DMS-273
[33] = system: COLO 205
[34] = system: HOP-62
[35] = system: SF-295
[36] = system: SK-MEL-5
[37] = system: OVCAR-4
[38] = system: UACC-257
[39] = system: RXF 393
[40] = system: CCRF-CEM
[41] = system: NCI-H460
[42] = system: DLD-1
[43] = system: HT-29
[44] = system: SF-539
[45] = system: KM-20L2
[46] = system: SK-MEL-2
[47] = system: A549
[48] = system: IGROV-1

O=[N+]([O-])c1cc(-c2nnc(S)[nH]2)ccc1O
GI50 [1]: > 100 µM (inactive) | GI50 [2]: 4.06 µM (inactive) | GI50 [3]: > 100 µM (inactive) | GI50 [4]: > 100 µM (inactive) | GI50 [5]: > 100 µM (inactive) | GI50 [6]: > 100 µM (inactive) | GI50 [7]: > 100 µM (inactive) | GI50 [8]: > 100 µM (inactive) | GI50 [9]: > 100 µM (inactive) | GI50 [10]: > 100 µM (inactive) | GI50 [11]: > 100 µM (inactive) | GI50 [12]: > 100 µM (inactive) | GI50 [13]: 32.4 µM (inactive) | GI50 [14]: > 100 µM (inactive) | GI50 [15]: > 100 µM (inactive) | GI50 [16]: > 100 µM (inactive) | GI50 [17]: > 100 µM (inactive) | GI50 [18]: > 100 µM (inactive) | GI50 [19]: > 100 µM (inactive) | GI50 [20]: > 100 µM (inactive) | GI50 [21]: > 100 µM (inactive) | GI50 [22]: > 100 µM (inactive) | GI50 [23]: 16.5 µM | GI50 [24]: > 100 µM (inactive) | GI50 [25]: > 100 µM (inactive) | GI50 [26]: 86.3 µM (inactive) | GI50 [27]: > 100 µM (inactive) | GI50 [28]: > 100 µM (inactive) | GI50 [29]: > 100 µM (inactive) | GI50 [30]: > 100 µM (inactive) | GI50 [31]: > 100 µM (inactive) | GI50 [32]: 67.6 µM (inactive) | GI50 [33]: 20.1 µM (inactive) | GI50 [34]: > 100 µM (inactive) | GI50 [35]: > 100 µM (inactive) | GI50 [36]: > 100 µM (inactive) | GI50 [37]: > 100 µM (inactive) | GI50 [38]: > 100 µM (inactive) | GI50 [39]: > 100 µM (inactive) | GI50 [40]: > 100 µM (inactive) | GI50 [41]: 44.4 µM (inactive) | GI50 [42]: > 100 µM (inactive) | GI50 [43]: > 100 µM (inactive) | GI50 [44]: > 100 µM (inactive) | GI50 [45]: > 100 µM (inactive) | GI50 [46]: > 100 µM (inactive) | GI50 [47]: > 100 µM (inactive) | GI50 [48]: > 100 µM (inactive)

— ChEMBL document CHEMBL1201862, “PubChem BioAssay data set” (2004)
